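Where inhibition never reached the appropriate level, the endpoint shown equals the highest concentration tested. Otherwise, values were interpolated linearly from a five-concentration, 48-hour dose response in 96-well plates. At the GI50, growth is halved.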 Active and inactive are the calls of the source. Rule as the data show it: active = GI50 up to about 1.1 µM and inactive = higher.
How the values were obtained:
Assay in all cases: NCI tumour cell line growth inhibition, 48 h
OVCAR-5 = tested on: OVCAR-5
MOLT-4 = tested on: MOLT-4
LXFL 529 = tested on: LXFL 529
ACHN = tested on: ACHN
RPMI-8226 = tested on: RPMI-8226
SK-OV-3 = tested on: SK-OV-3
SF-539 = tested on: SF-539
SF-268 = tested on: SF-268
SNB-78 = tested on: SNB-78
HL-60 = tested on: HL-60
NCI-H226 = tested on: NCI-H226
HOP-92 = tested on: HOP-92
UACC-62 = tested on: UACC-62
UACC-257 = tested on: UACC-257
IGROV-1 = tested on: IGROV-1
K562 = tested on: K562
LOX IMVI = tested on: LOX IMVI
COLO 205 = tested on: COLO 205
SNB-75 = tested on: SNB-75
A549 = tested on: A549
SNB-19 = tested on: SNB-19
M19-MEL = tested on: M19-MEL
SF-295 = tested on: SF-295
U-251 = tested on: U-251
OVCAR-4 = tested on: OVCAR-4
TK-10 = tested on: TK-10
Malme-3M = tested on: Malme-3M
SK-MEL-2 = tested on: SK-MEL-2
HCT-116 = tested on: HCT-116
SK-MEL-28 = tested on: SK-MEL-28
KM-20L2 = tested on: KM-20L2
XF498 = tested on: XF498
DMS-273 = tested on: DMS-273
NCI-H460 = tested on: NCI-H460
CAKI-1 = tested on: CAKI-1
RXF 631 = tested on: RXF 631
NCI-H522 = tested on: NCI-H522
SN12C = tested on: SN12C
M14 = tested on: M14
HOP-18 = tested on: HOP-18
SW-620 = tested on: SW-620
EKVX = tested on: EKVX
NCI-H23 = tested on: NCI-H23
OVCAR-8 = tested on: OVCAR-8
DMS-114 = tested on: DMS-114
OVCAR-3 = tested on: OVCAR-3
SK-MEL-5 = tested on: SK-MEL-5
KM12 = tested on: KM12
A498 = tested on: A498
786-0 = tested on: 786-0
CCRF-CEM = tested on: CCRF-CEM
HOP-62 = tested on: HOP-62
UO-31 = tested on: UO-31
RXF 393 = tested on: RXF 393
HT-29 = tested on: HT-29
HCT-15 = tested on: HCT-15
HCC 2998 = tested on: HCC 2998
DLD-1 = tested on: DLD-1
SR = tested on: SR

C[C@]12CCC(=O)C(O)=C1CC[C@@H]1C2CC[C@]2(C)NC(=O)CCC12 (stereo partly specified)
GI50 (OVCAR-5): > 100 µM (inactive) | GI50 (MOLT-4): > 100 µM (inactive) | GI50 (LXFL 529): > 100 µM (inactive) | GI50 (ACHN): > 100 µM (inactive) | GI50 (RPMI-8226): > 100 µM (inactive) | GI50 (SK-OV-3): > 100 µM (inactive) | GI50 (SF-539): > 100 µM (inactive) | GI50 (SF-268): > 100 µM (inactive) | GI50 (SNB-78): > 100 µM (inactive) | GI50 (HL-60): > 100 µM (inactive) | GI50 (NCI-H226): > 100 µM (inactive) | GI50 (HOP-92): > 100 µM (inactive) | GI50 (UACC-62): > 100 µM (inactive) | GI50 (UACC-257): > 100 µM (inactive) | GI50 (IGROV-1): > 100 µM (inactive) | GI50 (K562): > 100 µM (inactive) | GI50 (LOX IMVI): > 100 µM (inactive) | GI50 (COLO 205): > 100 µM (inactive) | GI50 (SNB-75): > 100 µM (inactive) | GI50 (A549): > 100 µM (inactive) | GI50 (SNB-19): > 100 µM (inactive) | GI50 (M19-MEL): > 100 µM (inactive) | GI50 (SF-295): > 100 µM (inactive) | GI50 (U-251): > 100 µM (inactive) | GI50 (OVCAR-4): > 100 µM (inactive) | GI50 (TK-10): > 100 µM (inactive) | GI50 (Malme-3M): > 100 µM (inactive) | GI50 (SK-MEL-2): > 100 µM (inactive) | GI50 (HCT-116): > 100 µM (inactive) | GI50 (SK-MEL-28): > 100 µM (inactive) | GI50 (KM-20L2): > 100 µM (inactive) | GI50 (XF498): > 100 µM (inactive) | GI50 (DMS-273): > 100 µM (inactive) | GI50 (NCI-H460): > 100 µM (inactive) | GI50 (CAKI-1): > 100 µM (inactive) | GI50 (RXF 631): > 100 µM (inactive) | GI50 (NCI-H522): > 100 µM (inactive) | GI50 (SN12C): > 100 µM (inactive) | GI50 (M14): > 100 µM (inactive) | GI50 (HOP-18): > 100 µM (inactive) | GI50 (SW-620): > 100 µM (inactive) | GI50 (EKVX): > 100 µM (inactive) | GI50 (NCI-H23): > 100 µM (inactive) | GI50 (OVCAR-8): > 100 µM (inactive) | GI50 (DMS-114): > 100 µM (inactive) | GI50 (OVCAR-3): > 100 µM (inactive) | GI50 (SK-MEL-5): > 100 µM (inactive) | GI50 (KM12): > 100 µM (inactive) | GI50 (A498): > 100 µM (inactive) | GI50 (786-0): > 100 µM (inactive) | GI50 (CCRF-CEM): > 100 µM (inactive) | GI50 (HOP-62): > 100 µM (inactive) | GI50 (UO-31): > 100 µM (inactive) | GI50 (RXF 393): > 100 µM (inactive) | GI50 (HT-29): > 100 µM (inactive) | GI50 (HCT-15): 70.6 µM

C/C(N)=[N+](/C)[O-]
GI50 (OVCAR-5): > 100 µM (inactive) | GI50 (MOLT-4): > 100 µM (inactive) | GI50 (LXFL 529): > 100 µM (inactive) | GI50 (ACHN): 31.6 µM (inactive) | GI50 (RPMI-8226): > 100 µM (inactive) | GI50 (SK-OV-3): > 100 µM (inactive) | GI50 (SF-539): 69.2 µM (inactive) | GI50 (SF-268): 46.3 µM (inactive) | GI50 (SNB-78): > 100 µM (inactive) | GI50 (HL-60): > 100 µM (inactive) | GI50 (NCI-H226): > 100 µM (inactive) | GI50 (HOP-92): > 100 µM (inactive) | GI50 (UACC-62): > 100 µM (inactive) | GI50 (UACC-257): > 100 µM (inactive) | GI50 (IGROV-1): > 100 µM (inactive) | GI50 (K562): 39.5 µM (inactive) | GI50 (LOX IMVI): 15.5 µM (inactive) | GI50 (COLO 205): 17.2 µM (inactive) | GI50 (HCC 2998): 36.9 µM (inactive) | GI50 (SNB-75): > 100 µM (inactive) | GI50 (DLD-1): 46.6 µM (inactive) | GI50 (A549): > 100 µM (inactive) | GI50 (M19-MEL): 40.5 µM (inactive) | GI50 (SF-295): > 100 µM (inactive) | GI50 (U-251): > 100 µM (inactive) | GI50 (OVCAR-4): 38.5 µM (inactive) | GI50 (TK-10): > 100 µM (inactive) | GI50 (Malme-3M): > 100 µM (inactive) | GI50 (SK-MEL-2): > 100 µM (inactive) | GI50 (HCT-116): > 100 µM (inactive) | GI50 (SK-MEL-28): 82.4 µM (inactive) | GI50 (KM-20L2): > 100 µM (inactive) | GI50 (XF498): > 100 µM (inactive) | GI50 (NCI-H460): 25.4 µM (inactive) | GI50 (RXF 631): > 100 µM (inactive) | GI50 (NCI-H522): 72.6 µM (inactive) | GI50 (SN12C): 92.9 µM (inactive) | GI50 (M14): > 100 µM (inactive) | GI50 (HOP-18): > 100 µM (inactive) | GI50 (SR): 23.8 µM (inactive) | GI50 (EKVX): > 100 µM (inactive) | GI50 (NCI-H23): > 100 µM (inactive) | GI50 (OVCAR-8): > 100 µM (inactive) | GI50 (DMS-114): 18.4 µM (inactive) | GI50 (OVCAR-3): > 100 µM (inactive) | GI50 (SK-MEL-5): > 100 µM (inactive) | GI50 (KM12): > 100 µM (inactive) | GI50 (A498): > 100 µM (inactive) | GI50 (786-0): > 100 µM (inactive) | GI50 (CCRF-CEM): 23.4 µM (inactive) | GI50 (HOP-62): > 100 µM (inactive) | GI50 (UO-31): > 100 µM (inactive) | GI50 (RXF 393): > 100 µM (inactive) | GI50 (HT-29): 83.6 µM (inactive) | GI50 (HCT-15): 19.9 µM

Reference: ChEMBL document CHEMBL1201862, “PubChem BioAssay data set” (2004)
